In patent US9284288B2, “1-(p-tolyl) cyclopropyl substituted bridged spiro[2.4]heptane derivatives as ALX receptor agonists” (Actelion Pharmaceuticals Ltd., priority 2012, dated 2016):

Biological target: T1, recombinant human ALX receptor (Homo sapiens, UniProt P25090)
T1 construct: expressed in transfected cells; host or cells: HEK293
T1 sequence (P25090 1-351): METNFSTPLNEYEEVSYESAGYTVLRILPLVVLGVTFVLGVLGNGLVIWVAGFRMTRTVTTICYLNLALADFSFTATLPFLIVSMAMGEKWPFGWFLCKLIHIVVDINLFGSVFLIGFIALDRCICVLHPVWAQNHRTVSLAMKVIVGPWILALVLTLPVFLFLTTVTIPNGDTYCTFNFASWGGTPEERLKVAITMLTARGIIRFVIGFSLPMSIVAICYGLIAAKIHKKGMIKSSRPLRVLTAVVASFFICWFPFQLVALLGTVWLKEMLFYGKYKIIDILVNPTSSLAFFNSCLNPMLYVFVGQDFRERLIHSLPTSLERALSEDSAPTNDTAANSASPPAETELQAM
Test: Intracellular calcium measurements (FLIPR), ALX receptor agonistic activity
Assay type: cell-based
Settings: HEK293-hALXR-Gα16 cells; normalized to WKYMVm 10 nM; read-out: EC50 (agonistic activity with respect to the ALX receptor)
Experimental: The ALX receptor agonistic activity of the compounds of formula (I) is determined in accordance with the following experimental method.
Cells expressing recombinant human ALX receptor and the G-protein Gα16 (HEK293-hALXR-Gα16) were grown to 80% confluency in Growing Medium (GM). Cells were detached from culture dishes with a cell dissociation buffer (Invitrogen, 13151-014), and collected by centrifugation at 1′000 rpm at rt for 5 min in Assay Buffer (AB) (equal parts of Hank's BSS (Gibco, 14065-049) and DMEM without Phenol Red (Gibco, 11880-028)). After 60 min incubation at 37° C. under 5% CO2 in AB supplemented with 1 μM Fluo-4 (AM) (Invitrogen, F14202) and 20 mM HEPES (Gibco, 15630-056), the cells were washed and resuspended in AB. They were then seeded onto 384-well FLIPR assay plates (Greiner, 781091) at 50,000 cells in 70 μl per well and sedimented by centrifugation at 1,000 rpm for 1 min. Stock solutions of test compounds were made up at a concentration of 10 mM in DMSO, and serially diluted in AB to concentrations required for activation dose response curves. WKYMVm (Phoenix Peptides) was used as a reference agonist. […] Changes in fluorescence were monitored before and after the addition of test compounds at lex=488 nm and lem=540 nm. […]

EC50: 4 nM
SMILES: Cc1ccc(C2(NC(=O)C3C(C(=O)NCCCCN4CCCC4)C4CCC3C43CC3)CC2)cc1 [Example 1, (5R)-N^5-(1-(p-tolyl)cyclopropyl)-(6R)-N^6-(4-(pyrrolidino)butyl)-(4S,7R)-[4,7-ethylene-spiro[2.4]heptane]-5,6-dicarboxamide]
